Several values for one entry are separate records, joined by “and”; a condition that tells them apart may be missing. Equal entries are not always repeated.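 Compound exposure: 48 hours, 5 concentrations, 96-well plates. GI50: concentration for 50% inhibition of growth. TGI: concentration producing complete growth inhibition.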
What was measured:
Assay in all cases: growth of human tumour cells (NCI), 48 h
[1] = tested on: HL-60(TB) leukemia
[2] = tested on: MDA-MB-231 breast
[3] = tested on: LOX IMVI melanoma
[4] = tested on: A498 renal
[5] = tested on: MOLT-4 leukemia
[6] = tested on: OVCAR-5 ovarian
[7] = tested on: NCI-H226 lung
[8] = tested on: UO-31 renal
[9] = tested on: 786-0 renal
[10] = tested on: NCI-H522 lung

`CCc1nc2cc(/C=C/C(=O)NO)c(F)cc2c(=O)n1CCc1ccccc1` gave a GI50 [1] of 3.71 µM, a TGI [1] greater than 100 µM and a GI50 [2] of 0.668 µM. The TGI [2] was 7.97 µM, the GI50 [3] was 0.488 µM and the TGI [3] was 1.97 µM. The GI50 [4] was 1.02 µM, the TGI [4] was 3.39 µM and the GI50 [5] was 1.03 µM. The TGI [5] was greater than 100 µM, the GI50 [6] was 1.61 µM and the TGI [6] was 12.6 µM. The GI50 [7] was 1.25 µM, the TGI [7] was 5.98 µM and the GI50 [8] was 0.735 µM. It also gave a TGI [8] of 2.73 µM, a GI50 [9] of 1.7 µM and a TGI [9] of 4.49 µM. For the same molecule, the GI50 [10] was 0.502 µM and the TGI [10] was 3.98 µM.

Work on `c1ccc(CN2CCC3(CC2)ONC2=NCCN23)cc1` yielded a GI50 [1] of 35.4 µM, a TGI [1] greater than 100 µM and a GI50 [2] greater than 100 µM. For the same molecule, the TGI [2] was greater than 100 µM, the GI50 [3] was 21.7 µM and the TGI [3] was 55.5 µM. The GI50 [4] was greater than 100 µM, the TGI [4] was greater than 100 µM and the GI50 [5] was 47.3 µM. For the same molecule, the TGI [5] was greater than 100 µM, the GI50 [6] was 40.8 µM and the TGI [6] was greater than 100 µM. It also gave a GI50 [7] of 86.8 µM, a TGI [7] greater than 100 µM and a GI50 [8] of 22.3 µM. It also gave a TGI [8] greater than 100 µM, a GI50 [9] of 42.6 µM and a TGI [9] greater than 100 µM. It also gave a GI50 [10] of 37.8 µM and a TGI [10] greater than 100 µM.

Molecule `S=C(S)NCCCn1ccnc1` has a TGI [1] greater than 100 µM, a TGI [2] greater than 100 µM and a TGI [3] greater than 100 µM. For the same molecule, the TGI [4] was greater than 100 µM, the TGI [5] was greater than 100 µM and the TGI [6] was greater than 100 µM. It also gave a TGI [7] greater than 100 µM, a TGI [8] greater than 100 µM and a TGI [9] greater than 100 µM. It also gave a TGI [10] greater than 100 µM.

`COc1ccc(S(=O)(=O)N2CCCCC2)cc1NC(=O)c1[nH]c(C)c2c1CCCCC2=O` showed a GI50 [1] of 0.444 µM, a TGI [1] of 6.86 µM and a GI50 [2] of 0.718 µM. For the same molecule, the TGI [2] was greater than 100 µM, the GI50 [3] was 0.887 µM and the TGI [3] was 2.79 µM. The GI50 [4] was 1.08 µM, the TGI [4] was 3.98 µM and the GI50 [5] was 4.31 µM. For the same molecule, the TGI [5] was greater than 100 µM, the GI50 [6] was 2.53 µM and the TGI [6] was greater than 100 µM. The GI50 [7] was 1.27 µM, the TGI [7] was 34.7 µM and the GI50 [8] was 0.379 µM. It also gave a TGI [8] of 40.7 µM, a GI50 [9] of 1.06 µM and a TGI [9] greater than 100 µM. For the same molecule, the GI50 [10] was 0.374 µM and the TGI [10] was 7.73 µM.

`CCCCCCCCCCCCCCCC[N+](C)(C)C` was tested, and the GI50 [1] was 0.148 µM and 0.371 µM, the TGI [1] was 0.336 µM and 1.81 µM and the GI50 [2] was 0.169 µM and 1.38 µM. For the same molecule, the TGI [2] was 0.405 µM and 3.55 µM, the TGI [3] was 0.332 µM and 3.07 µM and the GI50 [4] was 1.96 µM. The TGI [4] was 5.25 µM, the GI50 [5] was 0.157 µM and 1.17 µM and the TGI [5] was 0.346 µM and 2.8 µM. The GI50 [6] was 0.196 µM and 1.23 µM, the TGI [6] was 0.61 µM and 4.06 µM and the GI50 [7] was 1.13 µM. For the same molecule, the TGI [7] was 3.07 µM, the GI50 [8] was 0.552 µM and 2.18 µM and the TGI [8] was 2.27 µM and 10.6 µM. For the same molecule, the GI50 [9] was 0.966 µM, the TGI [9] was 2.43 µM and the GI50 [10] was 0.139 µM. The TGI [10] was 0.329 µM.

For `COc1ccccc1NC(=O)N/C(N)=N/c1nc2ccccc2s1`, the GI50 [1] was 0.0827 µM, the TGI [1] was 0.436 µM and the GI50 [2] was 3.48 µM. It also gave a TGI [2] greater than 100 µM, a GI50 [3] of 0.145 µM and a TGI [3] greater than 100 µM. It also gave a GI50 [4] of 0.24 µM, a TGI [4] greater than 100 µM and a GI50 [5] of 0.162 µM. It also gave a TGI [5] greater than 100 µM, a GI50 [6] of 0.42 µM and a TGI [6] greater than 100 µM. It also gave a GI50 [7] of 0.949 µM, a TGI [7] greater than 100 µM and a GI50 [8] of 0.389 µM. It also gave a TGI [8] greater than 100 µM, a GI50 [9] of 0.288 µM and a TGI [9] greater than 100 µM. The GI50 [10] was 0.025 µM.

Work on `CN(C)c1ccc2c(SCC(=O)OCC(=O)[C@@]3(O)CC[C@H]4[C@@H]5CCC6=CC(=O)C=C[C@]6(C)[C@H]5C(=O)C[C@@]43C)c3ccc(N(C)C)cc3nc2c1` yielded a TGI [1] greater than 20.5 µM, a TGI [2] greater than 93.8 µM and a TGI [3] greater than 100 µM. For the same molecule, the TGI [4] was greater than 96.2 µM, the TGI [5] was greater than 100 µM and the TGI [6] was greater than 100 µM. The TGI [7] was 47.5 µM, the TGI [8] was 24.8 µM and the TGI [9] was greater than 47.4 µM. For the same molecule, the TGI [10] was greater than 100 µM.

Reference: PubChem BioAssay (NCI)
